# How the values were obtained:
# [1] = test system: dopaminergic neurons of the substantia nigra pars compacta; assay: Confocal localization of Cy3 label in substantia nigra after ICV administration; assay type: in vivo, mice; conditions: FIG. 17
# Method: (§1) For the infusion of siRNAs, C57BV6Ncr1 male mice were deeply anesthetized with isofluorane and placed in a mouse adaptor (Stoelting ref. 51625) attached to a stereotaxic frame with digital display readout (David Kopf Instruments, model 940). […] The needle was left in the place for 3 min to avoid upward flow of the siRNA solution.
# (§2) The mice were perfused with 4% PFA at two different time points, 1 and 3 hours post-administration of the siRNA. Brains were dissected and post-fixed in a solution of 4% PFA for 24 h at 4° C. Then brains were placed in a 30% sucrose solution for 48 h at 4° C. Brains were frozen in 2-methylbutane at −30 to −40° C. and stored at −80° C. Brains were sectioned in a cryostat Leica CM3050 S ([…]). Free-floating sections were washed and stored at 4° C. in 0.1 M PBS and 0.001% sodium azide.
# (§3) Sections were washed in PBS, blocked with 2% goat serum and 0.1% Triton and incubated with anti-TH antibody (1:800 mouse) overnight at 4° C. After washing, sections were incubated with secondary antibody Alexa Fluor 647 anti-mouse (Invitrogen) for 1 h at room temperature. Finally sections were mounted with Dako Fluorescent Mounting Medium and analyzed using a confocal spectral microscope (FV 1000 Olympus). Pictures were generated using FV 10-ASW 1.7 Viewer.
# [2] = test system: noradrenergic neurons of the locus coeruleus; assay: Confocal localization of Cy3 label in locus coeruleus after ICV administration; assay type: in vivo, mice; conditions: FIG. 18
# Method: as §1, §2, §3
# [3] = 1 hour after ICV administration, 100 μg
substance,measurement,setting,value
"NLF-NS-siRNA-Cy3: non-sense siRNA (SEQ ID NO 69/70) conjugated to nomifensin, antisense strand carrying Cy3 (chain 1 AGUACUGCUUACGAUACGG; chain 2 CCGUAUCGUAAGCAGUACU; conjugated to nomifensin, Cy3 label, positions not given here)",Cy3 red labeling in TH-positive nigral neurons,[1]; [3],can be detected within TH-positive nigral neurons
same,Cy3 red labeling in gabaergic neurons of the substantia nigra reticulata,[1]; [3],not in the gabaergic neurons
same,Cy3 red intracellular labeling in substantia nigra,[1]; 3 hours after ICV injection,any red intracellular labeling can not be detected
same,Cy3 red labeling in TH-positive noradrenergic neurons,[2]; [3],can be detected mainly within TH-positive noradrenergic neurons
same,Cy3 red intracellular labeling in locus coeruleus,[2]; 3 hours after ICV injection,any red intracellular labeling can not be detected

# — US10071163B2, “Compositions and methods for selective delivery of oligonucleotide molecules to specific neuron types” (nLife Therapeutics, S.L., priority 2010, dated 2018)
